Reference: PubChem BioAssay (NCI)
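These data come from cells grown in 96-well plates and exposed to compound for 48 hours at five concentrations. Abbreviation: GI50, concentration required for 50% inhibition of growth. At the TGI there is no net growth.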

Tests used:
Experiment in all cases: NCI tumour cell line growth inhibition, 48 h; in the data active means GI50 below about 0.43 µM; inactive means the rest
NCI-H226 lung = tested on: NCI-H226 lung
SK-MEL-2 melanoma = tested on: SK-MEL-2 melanoma
SNB-75 CNS = tested on: SNB-75 CNS
SF-539 CNS = tested on: SF-539 CNS
MALME-3M melanoma = tested on: MALME-3M melanoma
HCT-15 colon = tested on: HCT-15 colon
PC-3 prostate = tested on: PC-3 prostate
NCI-H460 lung = tested on: NCI-H460 lung
SW-620 colon = tested on: SW-620 colon
MOLT-4 leukemia = tested on: MOLT-4 leukemia
HCC-2998 colon = tested on: HCC-2998 colon
BT-549 breast = tested on: BT-549 breast
A549 NSCLC = tested on: A549 NSCLC
CAKI-1 renal = tested on: CAKI-1 renal
DU-145 prostate = tested on: DU-145 prostate
A498 renal = tested on: A498 renal
EKVX NSCLC = tested on: EKVX NSCLC
RXF 393 renal = tested on: RXF 393 renal
CCRF-CEM leukemia = tested on: CCRF-CEM leukemia
SN12C renal = tested on: SN12C renal
OVCAR-4 ovarian = tested on: OVCAR-4 ovarian
786-0 renal = tested on: 786-0 renal
HT29 colon = tested on: HT29 colon
MDA-MB-231 breast = tested on: MDA-MB-231 breast
ACHN renal = tested on: ACHN renal
OVCAR-8 ovarian = tested on: OVCAR-8 ovarian
NCI-H23 lung = tested on: NCI-H23 lung
UACC-257 melanoma = tested on: UACC-257 melanoma
KM12 colon = tested on: KM12 colon
SNB-19 CNS = tested on: SNB-19 CNS
IGROV1 ovarian = tested on: IGROV1 ovarian
SK-MEL-28 melanoma = tested on: SK-MEL-28 melanoma
NCI/ADR-RES ovarian = tested on: NCI/ADR-RES ovarian
OVCAR-5 ovarian = tested on: OVCAR-5 ovarian
HL-60(TB) leukemia = tested on: HL-60(TB) leukemia
UO-31 renal = tested on: UO-31 renal
OVCAR-3 ovarian = tested on: OVCAR-3 ovarian
LOX IMVI melanoma = tested on: LOX IMVI melanoma
M14 melanoma = tested on: M14 melanoma
SF-268 CNS = tested on: SF-268 CNS
T-47D breast = tested on: T-47D breast
RPMI-8226 leukemia = tested on: RPMI-8226 leukemia
HOP-92 NSCLC = tested on: HOP-92 NSCLC
SF-295 CNS = tested on: SF-295 CNS
TK-10 renal = tested on: TK-10 renal
COLO 205 colon = tested on: COLO 205 colon
MCF7 breast = tested on: MCF7 breast
HOP-62 NSCLC = tested on: HOP-62 NSCLC
HS 578T breast = tested on: HS 578T breast
UACC-62 melanoma = tested on: UACC-62 melanoma

COc1ccc2c(c1)oc1c(C)c3c(c(C)c12)C(=O)N(N)C3=O
inactive: GI50 (NCI-H226 lung) 40.4 µM | GI50 (SK-MEL-2 melanoma) > 100 µM | GI50 (SNB-75 CNS) 4.37 µM | GI50 (SF-539 CNS) 78.8 µM | GI50 (MALME-3M melanoma) > 100 µM | GI50 (HCT-15 colon) > 100 µM | GI50 (PC-3 prostate) > 100 µM | GI50 (NCI-H460 lung) 3.49 µM | GI50 (SW-620 colon) > 100 µM | GI50 (MOLT-4 leukemia) 23.4 µM | GI50 (HCC-2998 colon) > 100 µM | GI50 (BT-549 breast) 5.2 µM | GI50 (A549 NSCLC) > 100 µM | GI50 (CAKI-1 renal) > 100 µM | GI50 (DU-145 prostate) > 100 µM | GI50 (A498 renal) 4.25 µM | GI50 (EKVX NSCLC) > 100 µM | GI50 (RXF 393 renal) 8.21 µM | GI50 (CCRF-CEM leukemia) > 100 µM | GI50 (SN12C renal) > 100 µM | GI50 (OVCAR-4 ovarian) > 100 µM | GI50 (786-0 renal) 22.7 µM | GI50 (HT29 colon) > 100 µM | GI50 (MDA-MB-231 breast) 61.9 µM | GI50 (ACHN renal) 7.53 µM | GI50 (OVCAR-8 ovarian) 7.89 µM | GI50 (NCI-H23 lung) > 100 µM | GI50 (UACC-257 melanoma) > 100 µM | GI50 (KM12 colon) > 100 µM | GI50 (SNB-19 CNS) > 100 µM | GI50 (IGROV1 ovarian) > 100 µM | GI50 (SK-MEL-28 melanoma) > 100 µM | GI50 (NCI/ADR-RES ovarian) > 100 µM | GI50 (OVCAR-5 ovarian) > 100 µM | GI50 (HL-60(TB) leukemia) > 100 µM | GI50 (UO-31 renal) > 100 µM | GI50 (OVCAR-3 ovarian) > 100 µM | GI50 (LOX IMVI melanoma) > 100 µM | GI50 (M14 melanoma) > 100 µM | GI50 (SF-268 CNS) 21.9 µM | GI50 (T-47D breast) > 100 µM | GI50 (RPMI-8226 leukemia) > 100 µM | GI50 (HOP-92 NSCLC) > 100 µM | GI50 (SF-295 CNS) > 100 µM | GI50 (TK-10 renal) > 100 µM | GI50 (COLO 205 colon) > 100 µM | GI50 (MCF7 breast) 50.7 µM | GI50 (HOP-62 NSCLC) 25 µM | GI50 (HS 578T breast) 32.6 µM | GI50 (UACC-62 melanoma) > 100 µM
> 100 µM: TGI (NCI-H226 lung) | TGI (SK-MEL-2 melanoma) | TGI (SNB-75 CNS) | TGI (SF-539 CNS) | TGI (MALME-3M melanoma) | TGI (HCT-15 colon) | TGI (PC-3 prostate) | TGI (NCI-H460 lung) | TGI (SW-620 colon) | TGI (MOLT-4 leukemia) | TGI (HCC-2998 colon) | TGI (BT-549 breast) | TGI (A549 NSCLC) | TGI (CAKI-1 renal) | TGI (DU-145 prostate) | TGI (A498 renal) | TGI (EKVX NSCLC) | TGI (RXF 393 renal) | TGI (CCRF-CEM leukemia) | TGI (SN12C renal) | TGI (OVCAR-4 ovarian) | TGI (786-0 renal) | TGI (HT29 colon) | TGI (MDA-MB-231 breast) | TGI (ACHN renal) | TGI (OVCAR-8 ovarian) | TGI (NCI-H23 lung) | TGI (UACC-257 melanoma) | TGI (KM12 colon) | TGI (SNB-19 CNS) | TGI (IGROV1 ovarian) | TGI (SK-MEL-28 melanoma) | TGI (NCI/ADR-RES ovarian) | TGI (OVCAR-5 ovarian) | TGI (HL-60(TB) leukemia) | TGI (UO-31 renal) | TGI (OVCAR-3 ovarian) | TGI (LOX IMVI melanoma) | TGI (M14 melanoma) | TGI (SF-268 CNS) | TGI (T-47D breast) | TGI (RPMI-8226 leukemia) | TGI (HOP-92 NSCLC) | TGI (SF-295 CNS) | TGI (TK-10 renal) | TGI (COLO 205 colon) | TGI (MCF7 breast) | TGI (HOP-62 NSCLC) | TGI (HS 578T breast) | TGI (UACC-62 melanoma)
